Values belong to the molecule of their own block, whether it stands above or below them. Peptide text beside a SMILES is read from it. * marks the point of attachment. Biotin = O=C1N[C@H]2[C@H](CS[C@H]2CCCCC(=O)*)N1
Experiments:
Assay in all cases: Apparent affinity (Kd) by titration of PL peptide in the G assay
Assay type in all cases: binding
[1] = target: T1, PDZ-domain polypeptide (GST/PDZ fusion protein) (Homo sapiens, UniProt Q13796); conditions: PDZ hAPXL, PDZ Domain 1; read-out: Peptide Optimal Conc (non-zero value: Kd by titration of the PL peptide)
T1 construct: made in house; host or cells: E. coli (DH5alpha, BL21 or JM109)
How it was run: (§1)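 A fixed concentration of GST/PDZ fusion protein, 5 ug/ml by default, was mixed in solution with increasing labeled PL peptide (e.g. 0.1 uM-1 mM). Reaction times ranged from 10 minutes to 2 days at 4-37° C. Complexes were separated from free peptide and detected via the label as in the G assay, apparent affinity coming from the saturating concentration.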

[2] = target: T2, PDZ-domain polypeptide (GST/PDZ fusion protein) (Homo sapiens, UniProt Q9HD26); conditions: Peptide Optimal Conc (Kd by titration of the PL peptide), PDZ PIST, PDZ Domain 1
T2 construct: made in house; host or cells: E. coli (DH5alpha, BL21 or JM109)
How it was run: as §1

[3] = target: T3, PDZ-domain polypeptide (GST/PDZ fusion protein) (Homo sapiens, UniProt Q9UDY2); conditions: Peptide Optimal Conc (Kd by titration of the PL peptide), PDZ ZO-2, PDZ Domain 1
T3 construct: made in house; host or cells: E. coli (DH5alpha, BL21 or JM109)
How it was run: as §1

[4] = target: T4, PDZ-domain polypeptide (GST/PDZ fusion protein) (Homo sapiens, UniProt Q96RT1); conditions: PDZ Erbin, PDZ Domain 1; read-out: Peptide Optimal Conc (Kd by titration of the PL peptide)
T4 construct: made in house; host or cells: E. coli (DH5alpha, BL21 or JM109)
How it was run: as §1

[5] = target: T5, PDZ-domain polypeptide (GST/PDZ fusion protein) (Homo sapiens, UniProt Q14160); conditions: PDZ KIAA0147, PDZ Domain 3; read-out: Peptide Optimal Conc (Kd by titration of the PL peptide)
T5 construct: made in house; host or cells: E. coli (DH5alpha, BL21 or JM109)
How it was run: as §1

[6] = target: T6, PDZ-domain polypeptide (GST/PDZ fusion protein) (Homo sapiens, UniProt Q9P202); conditions: PDZ KIAA1526, PDZ Domain 1; read-out: Peptide Optimal Conc (Kd by titration of the PL peptide)
T6 construct: made in house; host or cells: E. coli (DH5alpha, BL21 or JM109)
How it was run: as §1

[7] = target: T7, PDZ-domain polypeptide (GST/PDZ fusion protein) (Homo sapiens, UniProt Q96HC4); conditions: PDZ LIM Protein, PDZ Domain 1; titration of the PL peptide; read-out: Peptide Optimal Conc (Kd, dissociation constant)
T7 construct: made in house; host or cells: E. coli (DH5alpha, BL21 or JM109)
How it was run: as §1

[8] = target: T8, PDZ-domain polypeptide (GST/PDZ fusion protein) (Homo sapiens, UniProt O14907); conditions: PDZ TIP1, PDZ Domain 1; titration of the PL peptide; read-out: Peptide Optimal Conc (Kd, dissociation constant)
T8 construct: made in house; host or cells: E. coli (DH5alpha, BL21 or JM109)
How it was run: as §1

[9] = target: T9, PDZ-domain polypeptide (GST/PDZ fusion protein) (Homo sapiens, UniProt O15018); conditions: Peptide Optimal Conc (Kd by titration of the PL peptide), PDZ AIPC, PDZ Domain 1
T9 construct: made in house; host or cells: E. coli (DH5alpha, BL21 or JM109)
How it was run: as §1

[10] = target: T10, PDZ-domain polypeptide (GST/PDZ fusion protein) (Homo sapiens, UniProt Q8NI35); conditions: Peptide Optimal Conc (Kd by titration of the PL peptide), PDZ INADL, PDZ Domain 3
T10 construct: made in house; host or cells: E. coli (DH5alpha, BL21 or JM109)
How it was run: as §1

[11] = target: T11, PDZ-domain polypeptide (GST/PDZ fusion protein) (Homo sapiens, UniProt Q9Y3R0); conditions: Peptide Optimal Conc (Kd by titration of the PL peptide), PDZ GRIP1, PDZ Domain 6
T11 construct: made in house; host or cells: E. coli (DH5alpha, BL21 or JM109)
How it was run: as §1

[12] = target: T12, PDZ-domain polypeptide (GST/PDZ fusion protein) (Homo sapiens, UniProt Q9C0E4); conditions: Peptide Optimal Conc (Kd by titration of the PL peptide)
T12 construct: made in house; host or cells: E. coli (DH5alpha, BL21 or JM109)
How it was run: as §1

[13] = target: T13, PDZ-domain polypeptide (GST/PDZ fusion protein) (Homo sapiens, UniProt Q07157); conditions: Peptide Optimal Conc (Kd by titration of the PL peptide), PDZ ZO-1, PDZ Domain 2
T13 construct: made in house; host or cells: E. coli (DH5alpha, BL21 or JM109)
How it was run: as §1

[14] = target: T14, PDZ-domain polypeptide (GST/PDZ fusion protein) (Homo sapiens, UniProt Q969H4); conditions: PDZ Connector Enhancer, PDZ Domain 1; Protein Optimal Conc 5
T14 construct: made in house; host or cells: E. coli (DH5alpha, BL21 or JM109)
How it was run: as §1

[15] = target: T15, PDZ-domain polypeptide (GST/PDZ fusion protein) (Homo sapiens, UniProt P57105); conditions: PDZ Outer Membrane, PDZ Domain 1; Protein Optimal Conc 5
T15 construct: made in house; host or cells: E. coli (DH5alpha, BL21 or JM109)
How it was run: as §1

[16] = target: T16, PDZ-domain polypeptide (GST/PDZ fusion protein) (Homo sapiens, UniProt O00560); conditions: PDZ hSyntenin, PDZ Domain 1; titration of the PL peptide; read-out: Peptide Optimal Conc (Kd, dissociation constant)
T16 construct: made in house; host or cells: E. coli (DH5alpha, BL21 or JM109)
How it was run: as §1

T12 sequence (Q9C0E4 whole entry, the tested form may be a part): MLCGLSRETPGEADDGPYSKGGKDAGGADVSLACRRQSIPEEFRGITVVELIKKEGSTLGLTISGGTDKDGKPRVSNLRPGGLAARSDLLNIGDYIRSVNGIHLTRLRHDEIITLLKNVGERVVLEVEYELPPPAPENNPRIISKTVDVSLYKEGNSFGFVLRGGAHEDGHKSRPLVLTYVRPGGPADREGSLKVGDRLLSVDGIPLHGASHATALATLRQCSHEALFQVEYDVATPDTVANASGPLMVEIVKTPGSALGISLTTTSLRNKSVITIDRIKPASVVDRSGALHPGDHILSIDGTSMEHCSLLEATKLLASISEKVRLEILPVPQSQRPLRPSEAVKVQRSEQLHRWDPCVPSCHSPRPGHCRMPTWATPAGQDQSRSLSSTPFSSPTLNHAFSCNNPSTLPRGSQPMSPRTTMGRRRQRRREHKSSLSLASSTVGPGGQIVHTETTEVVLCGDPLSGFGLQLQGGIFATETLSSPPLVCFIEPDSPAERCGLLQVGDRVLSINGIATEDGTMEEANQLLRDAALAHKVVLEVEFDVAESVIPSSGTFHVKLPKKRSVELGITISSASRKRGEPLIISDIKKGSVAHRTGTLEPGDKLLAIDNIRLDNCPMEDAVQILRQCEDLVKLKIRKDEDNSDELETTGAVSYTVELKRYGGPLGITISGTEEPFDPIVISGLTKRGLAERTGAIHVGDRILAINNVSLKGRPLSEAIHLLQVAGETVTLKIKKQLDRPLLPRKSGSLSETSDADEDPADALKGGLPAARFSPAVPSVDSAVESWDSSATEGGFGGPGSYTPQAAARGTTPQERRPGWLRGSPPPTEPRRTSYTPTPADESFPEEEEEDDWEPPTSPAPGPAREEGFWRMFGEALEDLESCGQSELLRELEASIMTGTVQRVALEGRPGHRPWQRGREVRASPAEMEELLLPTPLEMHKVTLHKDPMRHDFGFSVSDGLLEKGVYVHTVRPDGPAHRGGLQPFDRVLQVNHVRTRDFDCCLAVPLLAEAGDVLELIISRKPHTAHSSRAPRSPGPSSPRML
T5 sequence (Q14160 whole entry, the tested form may be a part): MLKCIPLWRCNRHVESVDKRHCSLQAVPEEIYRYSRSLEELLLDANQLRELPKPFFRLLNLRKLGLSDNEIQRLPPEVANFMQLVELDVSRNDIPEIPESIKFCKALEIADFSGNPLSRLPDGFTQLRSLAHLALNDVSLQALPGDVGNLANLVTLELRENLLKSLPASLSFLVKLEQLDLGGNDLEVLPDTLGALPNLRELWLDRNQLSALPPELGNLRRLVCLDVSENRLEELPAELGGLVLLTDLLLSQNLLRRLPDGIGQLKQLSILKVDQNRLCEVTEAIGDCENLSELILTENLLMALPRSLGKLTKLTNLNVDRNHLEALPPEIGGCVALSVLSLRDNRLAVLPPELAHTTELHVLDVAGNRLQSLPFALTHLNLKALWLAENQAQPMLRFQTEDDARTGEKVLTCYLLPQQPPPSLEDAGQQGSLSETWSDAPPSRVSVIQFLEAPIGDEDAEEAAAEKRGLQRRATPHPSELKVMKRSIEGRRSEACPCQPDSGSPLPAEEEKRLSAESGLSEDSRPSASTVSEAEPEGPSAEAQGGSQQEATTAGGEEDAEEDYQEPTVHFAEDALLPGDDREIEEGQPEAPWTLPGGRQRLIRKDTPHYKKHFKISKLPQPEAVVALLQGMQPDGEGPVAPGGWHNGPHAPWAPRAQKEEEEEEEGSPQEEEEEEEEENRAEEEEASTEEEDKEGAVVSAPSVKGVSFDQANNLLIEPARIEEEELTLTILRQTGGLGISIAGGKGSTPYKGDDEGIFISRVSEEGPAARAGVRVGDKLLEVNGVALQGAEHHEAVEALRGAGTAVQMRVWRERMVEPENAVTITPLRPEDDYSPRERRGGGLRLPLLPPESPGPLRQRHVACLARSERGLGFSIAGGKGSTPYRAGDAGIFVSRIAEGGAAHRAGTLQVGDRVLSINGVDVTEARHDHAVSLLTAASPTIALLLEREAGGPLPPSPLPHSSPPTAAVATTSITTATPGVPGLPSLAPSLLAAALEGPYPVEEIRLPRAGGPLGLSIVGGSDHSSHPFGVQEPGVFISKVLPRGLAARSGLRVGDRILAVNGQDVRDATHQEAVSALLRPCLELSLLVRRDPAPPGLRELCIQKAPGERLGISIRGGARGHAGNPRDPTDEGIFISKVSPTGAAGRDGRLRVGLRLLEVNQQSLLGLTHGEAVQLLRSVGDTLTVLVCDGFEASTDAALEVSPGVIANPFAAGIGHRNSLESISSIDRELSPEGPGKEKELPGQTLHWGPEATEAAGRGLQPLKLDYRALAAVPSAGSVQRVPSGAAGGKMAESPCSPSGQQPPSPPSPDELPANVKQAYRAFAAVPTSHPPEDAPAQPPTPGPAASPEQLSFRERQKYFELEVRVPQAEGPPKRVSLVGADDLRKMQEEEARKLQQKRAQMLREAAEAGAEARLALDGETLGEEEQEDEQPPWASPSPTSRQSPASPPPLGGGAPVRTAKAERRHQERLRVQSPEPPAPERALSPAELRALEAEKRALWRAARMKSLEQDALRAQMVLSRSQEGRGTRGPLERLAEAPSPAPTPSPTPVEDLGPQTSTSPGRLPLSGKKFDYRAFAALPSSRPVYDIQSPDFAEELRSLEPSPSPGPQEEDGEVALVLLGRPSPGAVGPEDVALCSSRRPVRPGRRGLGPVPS
T7 sequence (Q96HC4 whole entry, the tested form may be a part): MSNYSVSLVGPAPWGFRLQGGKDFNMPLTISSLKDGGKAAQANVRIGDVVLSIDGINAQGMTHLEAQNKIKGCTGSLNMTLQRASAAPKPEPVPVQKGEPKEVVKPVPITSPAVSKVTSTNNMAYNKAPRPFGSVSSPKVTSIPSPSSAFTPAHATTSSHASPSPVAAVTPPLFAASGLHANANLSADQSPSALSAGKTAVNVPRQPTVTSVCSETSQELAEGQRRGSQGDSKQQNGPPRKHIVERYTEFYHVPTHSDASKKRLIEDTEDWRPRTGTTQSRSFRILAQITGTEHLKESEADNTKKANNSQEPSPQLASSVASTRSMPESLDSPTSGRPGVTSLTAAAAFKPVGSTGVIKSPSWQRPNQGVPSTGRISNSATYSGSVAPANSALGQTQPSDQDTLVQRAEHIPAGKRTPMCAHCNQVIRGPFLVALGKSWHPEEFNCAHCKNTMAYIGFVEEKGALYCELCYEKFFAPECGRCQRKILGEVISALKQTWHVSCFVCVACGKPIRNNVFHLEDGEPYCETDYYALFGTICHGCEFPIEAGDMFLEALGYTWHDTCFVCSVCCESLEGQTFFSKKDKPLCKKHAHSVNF
T14 sequence (Q969H4 whole entry, the tested form may be a part): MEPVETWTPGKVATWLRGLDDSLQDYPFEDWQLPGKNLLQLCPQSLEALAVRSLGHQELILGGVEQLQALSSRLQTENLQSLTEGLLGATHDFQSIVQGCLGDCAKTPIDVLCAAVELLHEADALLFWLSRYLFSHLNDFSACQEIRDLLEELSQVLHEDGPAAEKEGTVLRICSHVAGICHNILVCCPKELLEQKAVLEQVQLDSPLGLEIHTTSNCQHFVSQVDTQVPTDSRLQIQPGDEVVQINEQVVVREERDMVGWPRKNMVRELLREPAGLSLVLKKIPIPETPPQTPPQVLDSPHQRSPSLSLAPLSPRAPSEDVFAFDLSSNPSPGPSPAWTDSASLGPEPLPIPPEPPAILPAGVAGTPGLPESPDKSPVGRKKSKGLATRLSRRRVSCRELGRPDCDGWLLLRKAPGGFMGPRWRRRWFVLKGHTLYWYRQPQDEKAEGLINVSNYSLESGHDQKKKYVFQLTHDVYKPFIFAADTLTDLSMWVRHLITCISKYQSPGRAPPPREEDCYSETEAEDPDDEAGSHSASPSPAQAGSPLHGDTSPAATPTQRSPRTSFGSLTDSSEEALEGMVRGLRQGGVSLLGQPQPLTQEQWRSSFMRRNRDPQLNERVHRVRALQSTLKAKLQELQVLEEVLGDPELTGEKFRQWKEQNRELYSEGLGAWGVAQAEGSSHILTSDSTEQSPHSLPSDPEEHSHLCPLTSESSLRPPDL
T6 sequence (Q9P202 whole entry, the tested form may be a part): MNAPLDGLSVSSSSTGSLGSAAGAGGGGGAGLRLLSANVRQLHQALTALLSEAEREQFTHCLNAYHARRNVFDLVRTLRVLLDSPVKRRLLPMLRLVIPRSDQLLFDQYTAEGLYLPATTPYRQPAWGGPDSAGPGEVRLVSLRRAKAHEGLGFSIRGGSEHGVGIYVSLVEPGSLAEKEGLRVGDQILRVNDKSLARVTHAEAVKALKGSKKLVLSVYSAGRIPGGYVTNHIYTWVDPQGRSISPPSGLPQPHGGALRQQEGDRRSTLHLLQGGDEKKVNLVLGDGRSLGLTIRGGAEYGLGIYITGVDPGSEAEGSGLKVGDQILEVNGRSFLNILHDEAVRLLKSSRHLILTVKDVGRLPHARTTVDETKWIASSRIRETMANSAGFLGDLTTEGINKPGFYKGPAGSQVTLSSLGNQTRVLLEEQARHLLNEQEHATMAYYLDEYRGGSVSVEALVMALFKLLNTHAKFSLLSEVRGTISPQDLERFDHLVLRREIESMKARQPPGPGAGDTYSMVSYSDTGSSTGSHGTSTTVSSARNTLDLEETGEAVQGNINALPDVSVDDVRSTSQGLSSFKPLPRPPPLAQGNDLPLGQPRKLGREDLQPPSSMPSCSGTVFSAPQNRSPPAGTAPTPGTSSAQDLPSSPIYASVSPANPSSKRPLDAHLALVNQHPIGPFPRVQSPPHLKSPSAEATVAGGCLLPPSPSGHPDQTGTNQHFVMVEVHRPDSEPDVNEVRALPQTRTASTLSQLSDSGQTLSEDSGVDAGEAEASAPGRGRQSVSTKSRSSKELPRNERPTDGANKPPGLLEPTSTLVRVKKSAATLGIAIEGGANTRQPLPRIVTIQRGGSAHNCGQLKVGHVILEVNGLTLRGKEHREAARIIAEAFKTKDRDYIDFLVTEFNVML
T15 sequence (P57105 whole entry, the tested form may be a part): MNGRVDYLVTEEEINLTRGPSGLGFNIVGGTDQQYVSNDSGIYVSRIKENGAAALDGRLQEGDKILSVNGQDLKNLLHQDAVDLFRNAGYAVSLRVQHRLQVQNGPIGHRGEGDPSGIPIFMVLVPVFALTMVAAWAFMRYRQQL

- Kd [1]: 600 nM
Structure (SMILES): CC[C@H](C)[C@H](NC(=O)CNC(=O)[C@H](CO)NC(=O)[C@H](Cc1ccccc1)NC(=O)[C@@H](NC(=O)[C@H](CS)NC(=O)CNC(=O)CNC(=O)[C@H](C)NC(=O)[C@@H]1CCCN1C(=O)[C@@H](NC(=O)[C@@H]1CCCN1C(=O)CCCC[C@@H]1SC[C@@H]2NC(=O)N[C@@H]21)[C@@H](C)CC)[C@@H](C)O)C(=O)N[C@@H](Cc1ccccc1)C(=O)N1CCC[C@H]1C(=O)N[C@H](C(=O)N[C@@H](CC(C)C)C(=O)N[C@H](C(=O)N[C@@H](CO)C(=O)N1CCC[C@H]1C(=O)N[C@@H](CC(C)C)C(=O)O)[C@@H](C)O)[C@@H](C)O [KIA 1481] (Biotin-PIPAGGCTFSGIFPTLTSPL-OH; C-terminus assumed)

Structure (SMILES): CC[C@H](C)[C@H](NC(=O)[C@H](CC(=O)O)NC(=O)[C@H](CCC(=O)O)NC(=O)[C@H](CCCNC(=N)N)NC(=O)[C@@H](NC(=O)CCCC[C@@H]1SC[C@@H]2NC(=O)N[C@@H]21)[C@@H](C)O)C(=O)N[C@@H](Cc1ccc(O)cc1)C(=O)N[C@H](C(=O)N[C@@H](CC(N)=O)C(=O)N[C@@H](Cc1ccc(O)cc1)C(=O)N1CCC[C@H]1C(=O)N[C@H](C(=O)N[C@@H](Cc1ccccc1)C(=O)N[C@@H](CO)C(=O)N[C@@H](CCCNC(=N)N)C(=O)N[C@@H](CCCNC(=N)N)C(=O)N1CCC[C@H]1C(=O)N[C@@H](CCCCN)C(=O)N[C@H](C(=O)N[C@@H](CCCNC(=N)N)C(=O)N[C@H](C(=O)O)C(C)C)[C@@H](C)O)[C@@H](C)O)C(C)C [DNAM-1] (Biotin-TREDIYVNYPTFSRRPKTRV-OH; C-terminus assumed)
- Kd [2]: 2500 nM
- Kd [3]: 3000 nM

Structure (SMILES): CSCC[C@H](NC(=O)[C@H](C)NC(=O)[C@H](CCCNC(=N)N)NC(=O)CNC(=O)[C@@H](NC(=O)[C@H](Cc1c[nH]c2ccccc12)NC(=O)[C@H](CCCNC(=N)N)NC(=O)CNC(=O)CCCC[C@@H]1SC[C@@H]2NC(=O)N[C@@H]21)[C@@H](C)O)C(=O)N[C@@H](CO)C(=O)N[C@@H](C)C(=O)N[C@@H](Cc1c[nH]c2ccccc12)C(=O)N[C@@H](CCCCN)C(=O)N1CCC[C@H]1C(=O)N[C@H](C(=O)N[C@@H](CCCNC(=N)N)C(=O)N[C@@H](CCCNC(=N)N)C(=O)N[C@@H](CCC(=O)O)C(=O)N[C@H](C(=O)N[C@@H](CCC(=O)O)C(=O)N[C@H](C(=O)O)C(C)C)[C@@H](C)O)[C@@H](C)O [HPV E6 #35 (modified)] (Biotin-GRWTGRAMSAWKPTRRETEV-OH; C-terminus assumed)
- Kd [4]: 400 nM
- Kd [5]: 350 nM
- Kd [6]: 1000 nM

- Kd [7]: 2000 nM
- Kd [8]: 1000 nM
Structure (SMILES): CC(C)C[C@H](NC(=O)[C@H](CC(=O)O)NC(=O)[C@H](CO)NC(=O)[C@H](CCC(=O)O)NC(=O)CNC(=O)[C@H](Cc1ccc(O)cc1)NC(=O)[C@H](CC(C)C)NC(=O)[C@H](C)NC(=O)[C@H](CO)NC(=O)[C@H](CO)NC(=O)[C@H](Cc1ccccc1)NC(=O)[C@H](C)NC(=O)[C@H](C)NC(=O)[C@H](Cc1ccc(O)cc1)NC(=O)[C@H](CC(=O)O)NC(=O)[C@H](CC(C)C)NC(=O)[C@H](C)NC(=O)CNC(=O)[C@@H]1CCCN1C(=O)[C@@H](NC(=O)CCCC[C@@H]1SC[C@@H]2NC(=O)N[C@@H]21)C(C)C)C(=O)O [a-actinin 2] (Biotin-VPGALDYAAFSSALYGESDL-OH; C-terminus assumed)

Structure (SMILES): CC[C@H](C)[C@H](NC(=O)[C@H](C)NC(=O)[C@H](CC(C)C)NC(=O)[C@H](Cc1c[nH]c2ccccc12)NC(=O)[C@H](Cc1c[nH]cn1)NC(=O)[C@H](CCC(N)=O)NC(=O)[C@H](CC(C)C)NC(=O)[C@H](CCC(N)=O)NC(=O)[C@H](Cc1ccccc1)NC(=O)[C@H](CCC(N)=O)NC(=O)[C@H](CCCNC(=N)N)NC(=O)[C@@H](NC(=O)[C@H](CC(=O)O)NC(=O)[C@H](CCCNC(=N)N)NC(=O)[C@H](CCC(N)=O)NC(=O)[C@H](C)NC(=O)[C@@H](NC(=O)[C@H](CC(C)C)NC(=O)[C@H](Cc1c[nH]cn1)NC(=O)[C@H](Cc1c[nH]cn1)NC(=O)CCCC[C@@H]1SC[C@@H]2NC(=O)N[C@@H]21)C(C)C)[C@@H](C)CC)C(=O)O [noradrenaline transporter] (Biotin-HHLVAQRDIRQFQLQHWLAI-OH; C-terminus assumed)
- Kd [9]: 600 nM
- Kd [10]: 600 nM
- Kd [11]: 500 nM
- Kd ([12]; PDZ KIAA1719, PDZ Domain 5): 1000 nM
- Kd ([12]; PDZ KIAA1719, PDZ Domain 6): 800 nM
- Kd [13]: 400 nM

Structure (SMILES): CC[C@H](C)[C@H](NC(=O)[C@H](CCCCN)NC(=O)[C@@H](NC(=O)[C@H](CO)NC(=O)[C@@H]1CCCN1C(=O)[C@H](Cc1ccccc1)NC(=O)[C@@H](NC(=O)[C@@H](NC(=O)[C@H](CCCNC(=N)N)NC(=O)[C@H](CCC(=O)O)NC(=O)[C@H](CC(C)C)NC(=O)[C@H](CC(C)C)NC(=O)[C@H](CC(C)C)NC(=O)[C@@H](NC(=O)CNC(=O)[C@@H](NC(=O)CCCC[C@@H]1SC[C@@H]2NC(=O)N[C@@H]21)C(C)C)[C@@H](C)O)C(C)C)[C@@H](C)CC)C(C)C)C(=O)N[C@@H](C)C(=O)N[C@H](C(=O)N[C@@H](CC(C)C)C(=O)N[C@H](C(=O)O)C(C)C)[C@@H](C)O [Adenovirus E4 Type9]
- Kd [14]: 100 nM
- Kd [15]: 100 nM

- Kd [16]: 800 nM
Structure (SMILES): CC[C@H](C)[C@H](NC(=O)[C@H](Cc1ccc(O)cc1)NC(=O)[C@@H](NC(=O)[C@@H]1CCCN1C(=O)[C@H](CCC(N)=O)NC(=O)[C@H](CCC(=O)O)NC(=O)[C@H](CCC(N)=O)NC(=O)[C@H](C)NC(=O)[C@@H](NC(=O)[C@H](CC(C)C)NC(=O)[C@H](CC(C)C)NC(=O)[C@H](CCCNC(=N)N)NC(=O)[C@H](Cc1ccc(O)cc1)NC(=O)[C@H](CCSC)NC(=O)[C@H](C)NC(=O)[C@H](C)NC(=O)[C@@H]1CCCN1C(=O)[C@H](CCSC)NC(=O)[C@@H](NC(=O)[C@H](CCCCN)NC(=O)CCCC[C@@H]1SC[C@@H]2NC(=O)N[C@@H]21)[C@@H](C)O)[C@@H](C)O)C(C)C)C(=O)O [MINT-1] (Biotin-KTMPAAMYRLLTAQEQPVYI-OH; C-terminus assumed)

Source: patent US20050282743A1, “Molecular interactions in cells” (Arbor Vita Corporation, priority 2001, published 2005)
